# Test results from US11780852B2, “Methods for treating Crohn's disease using 3-((1R,3s,5S)-3-((7-((5-methyl-1H-pyrazol-3-yl)amino)-1,6-naphthyridin-5-yl)amino)-8-azabicyclo[3.2.1]octan-8-yl)propanenitrile” (priority 2015, dated 2023).
# Test system: IL-4 induced STAT6 phosphorylation in THP-1 human monocytic cells
# Assay: not given
# Details: not given
row,SMILES,THP-1 IL4 pIC50
1,Cc1cc(Nc2cc3ncccc3c(N[C@@H]3C[C@H]4CC[C@@H](C3)N4C(=O)c3ccncc3)n2)n[nH]1 [Example 2-13],B (key: A represents a pEC50 value ≥7.5 (EC50≤32 nM); B represents a pEC50 value between 6.7 and 7.5 (EC50 between 200 nM and 32 nM); C represents a pEC50 value <6.7 (EC50>200 nM))
2,Cc1cc(Nc2cc3ncccc3c(N[C@@H]3C[C@H]4CC[C@@H](C3)N4C(=O)c3ccccc3)n2)n[nH]1 [Example 2-12],B (key: A represents a pEC50 value ≥7.5 (EC50≤32 nM); B represents a pEC50 value between 6.7 and 7.5 (EC50 between 200 nM and 32 nM); C represents a pEC50 value <6.7 (EC50>200 nM))
3,Cc1cc(Nc2cc3ncccc3c(N[C@@H]3C[C@H]4CC[C@@H](C3)N4CC3COC(=O)O3)n2)n[nH]1 (some centres unmarked) [Example 1-30],B (key: A represents a pEC50 value ≥7.5 (EC50≤32 nM); B represents a pEC50 value between 6.7 and 7.5 (EC50 between 200 nM and 32 nM); C represents a pEC50 value <6.7 (EC50>200 nM))
4,Cc1cc(Nc2cc3ncccc3c(N[C@@H]3C[C@H]4CC[C@@H](C3)N4Cc3ccc(O)cc3)n2)n[nH]1 [Example 1-18],C (key: A represents a pEC50 value ≥7.5 (EC50≤32 nM); B represents a pEC50 value between 6.7 and 7.5 (EC50 between 200 nM and 32 nM); C represents a pEC50 value <6.7 (EC50>200 nM))
5,Cc1cc(Nc2cc3ncccc3c(N[C@@H]3C[C@H]4CC[C@@H](C3)N4C3CCCOC3=O)n2)n[nH]1 (some centres unmarked) [Example 1-28],C (key: A represents a pEC50 value ≥7.5 (EC50≤32 nM); B represents a pEC50 value between 6.7 and 7.5 (EC50 between 200 nM and 32 nM); C represents a pEC50 value <6.7 (EC50>200 nM))

# Same assay, conditions: THP-1 cells, IL-4 induced STAT6 phosphorylation
row,SMILES,THP-1 IL4 pIC50
1,COC(=O)C1(C(=O)N2[C@@H]3CC[C@H]2C[C@H](Nc2nc(Nc4cc(C)[nH]n4)cc4ncccc24)C3)CC1 [Example 2-9],C (C represents a pEC50 value <6.7 (EC50>200 nM))
2,Cc1cc(Nc2cc3ncccc3c(N[C@H]3C[C@H]4CCC[C@@H](C3)N4C3CCOC3=O)n2)n[nH]1 (some centres unmarked) [Example 1-52],B (B represents a pEC50 value between 6.7 and 7.5 (EC50 between 200 nM and 32 nM))

# Test system: oxazolone-induced colitis
# Assay: Mouse model of oxazolone-induced colitis
# Type: in vivo, BALB/C mice
# Details: PO, 1, 3, and/or 10 mg/kg BID (doses up to 10 mg/kg BID)
# Description: Assay 7: Mouse Model of Oxazalone-Induced Colitis
# Oxazolone-induced colitis is an experimental model that has a histological resemblance to human ulcerative colitis (Heller et al. Immunology, 2002, 17, 629-638). Adult BALB/C mice from Harlan were used in the assay. On day 1, animals were lightly anesthetized with isoflurane and the hairs between the shoulder were carefully removed before oxazolone (4%, 150 μL, 4:1 acetone:olive oil formulation) or vehicle solution was slowly applied for skin sensitization. Seven days after skin sensitization, the mice were fasted overnight, anesthetized with isoflurane inhalation, and a 1 mL syringe equipped with a 3.5-F catheter, filled with oxazolone solution, was inserted carefully about 4 cm into the colon of the mouse. Following insertion, 50 μL of the oxazolone solution (1%, 1:1 ethanol:water formulation) was injected very slowly (over 30 sec using an injection pump) into the colon. The catheter was removed and the mice were held vertically (head down) for 2 min to ensure that the entire oxazolone solution remained inside the colon. Drug treatment (PO, BID or TID) or vehicle was initiated a day prior to the oxazolone intrarectal (IR) challenge. Two-day post oxazolone intrarectal challenge, the Disease Activity Index (DAI) was assessed by treatment-blinded experimenters for each mouse according to the criteria score: stool consistency score (0, normal; 2, loose; 4, diarrhea), gross bleeding score (0, absence; 2, blood tinged; 4, presence), and weight loss score (0, none; 1, 1%-5%; 2, 5%-10^%; 3, 10%-20%; 4, more than 20%); DAI=average of (stool consistency score+gross bleeding score+weight loss score).
# Selected compounds of the invention were tested in the assay. Efficacy in the model is evidenced by a decrease in DAI score as compared with the score from vehicle treated animals.
row,SMILES,DAI score as compared with vehicle treated animals
1,"CCS(=O)(=O)N1[C@@H]2CC[C@H]1C[C@H](Nc1nc(Nc3cc(C)[nH]n3)cc3ncccc13)C2 [Example 7, N^5-((1R,3s,5S)-8-(ethylsulfonyl)-8-azabicyclo[3.2.1]octan-3-yl)-N^7-(5-methyl-1H-pyrazol-3-yl)-1,6-naphthyridine-5,7-diamine]",did not exhibit a statistically significant decrease
2,CCOCC(=O)N1[C@@H]2CCC[C@H]1C[C@H](Nc1nc(Nc3cc(C)[nH]n3)cc3ncccc13)C2 [Example 2-17],did not exhibit a statistically significant decrease
3,Cc1cc(Nc2cc3ncccc3c(N[C@@H]3C[C@H]4CC[C@@H](C3)N4S(=O)(=O)Cc3ccccc3)n2)n[nH]1 [Example 4-13],did not exhibit a statistically significant decrease
4,Cc1cc(Nc2cc3ncccc3c(N[C@@H]3C[C@H]4CC[C@@H](C3)N4S(=O)(=O)CC(C)C)n2)n[nH]1 [Example 4-3],did not exhibit a statistically significant decrease
5,Cc1cc(Nc2cc3ncccc3c(N[C@@H]3C[C@H]4CCC[C@@H](C3)N4S(=O)(=O)CC3CC3)n2)n[nH]1 [Example 4-23],did not exhibit a statistically significant decrease
6,Cc1cc(Nc2cc3ncccc3c(N[C@@H]3C[C@H]4CCC[C@@H](C3)N4S(=O)(=O)C3CC3)n2)n[nH]1 [Example 4-18],did not exhibit a statistically significant decrease
7,"Cc1cc(Nc2cc3ncccc3c(N[C@@H]3C[C@H]4CC[C@@H](C3)N4S(=O)(=O)c3cccnc3)n2)n[nH]1 [Example 3, N^7-(5-methyl-H-pyrazol-3-yl)-N-((1R,3s,5S)-8-(pyridin-3-ylsulfonyl)-8-azabicyclo[3.2.1]octan-3-yl)-1,6-naphthyridine-5,7-diamine]",statistically significant decrease
8,Cc1cc(Nc2cc3ncccc3c(NC3CC4CCCC(C3)N4C(=O)C(C)O)n2)n[nH]1 (centres unmarked) [Example 2-16],did not exhibit a statistically significant decrease
9,"COCCS(=O)(=O)N1[C@@H]2CC[C@H]1C[C@H](Nc1nc(Nc3cc(C)[nH]n3)cc3ncccc13)C2 [Example 6, N^5-((1R,3s,5S)-8-((2-methoxyethyl)sulfonyl)-8-azabicyclo[3.2.1]octan-3-yl)-N^7-(5-methyl-1H-pyrazol-3-yl)-1,6-naphthyridine-5,7-diamine]",statistically significant decrease
10,Cc1cc(Nc2cc3ncccc3c(N[C@@H]3C[C@H]4CC[C@@H](C3)N4S(=O)(=O)C3CC3)n2)n[nH]1 [Example 4-4],did not exhibit a statistically significant decrease
11,"Cc1cc(Nc2cc3ncccc3c(N[C@@H]3C[C@H]4CC[C@@H](C3)N4CCF)n2)n[nH]1 [Example 2, N^5-((1R,3s,5S)-8-(2-fluoroethyl)-8-azabicyclo[3.2.1]octan-3-yl)-N^7-(5-methyl-1H-pyrazol-3-yl)-1,6-naphthyridine-5,7-diamine]",statistically significant decrease
12,"Cc1cc(Nc2cc3ncccc3c(N[C@@H]3C[C@H]4CCC[C@@H](C3)N4C(=O)CN(C)C)n2)n[nH]1 [Example 4, 2-(Dimethylamino)-1-((1R,3s,5S)-3-((7-((5-methyl-1H-pyrazol-3-yl)amino)-1,6-naphthyridin-5-yl)amino)-9-azabicyclo[3.3.1]nonan-9-yl)ethan-1-one]",statistically significant decrease
13,"Cc1cc(Nc2cc3ncccc3c(N[C@@H]3C[C@H]4CCC[C@@H](C3)N4S(=O)(=O)c3ccccc3)n2)n[nH]1 [Example 9, N-(5-methyl-1H-pyrazol-3-yl)-N-((1R,3s,5S)-9-(phenylsulfonyl)-9-azabicyclo[3.3.1]nonan-3-yl)-1,6-naphthyridine-5,7-diamine]",did not exhibit a statistically significant decrease
14,Cc1cc(Nc2cc3ncccc3c(N[C@@H]3C[C@H]4CCC[C@@H](C3)N4C(=O)Cc3ccccc3)n2)n[nH]1 [Example 2-24],did not exhibit a statistically significant decrease
15,COCCS(=O)(=O)N1[C@@H]2CCC[C@H]1C[C@H](Nc1nc(Nc3cc(C)[nH]n3)cc3ncccc13)C2 [Example 4-19],did not exhibit a statistically significant decrease
16,Cc1cc(Nc2cc3ncccc3c(N[C@@H]3C[C@H]4CCC[C@@H](C3)N4C(=O)C(C)(C)CO)n2)n[nH]1 [Example 2-22],did not exhibit a statistically significant decrease
17,CCC(C)C(=O)N1C2CCC1CC(Nc1nc(Nc3cc(C)[nH]n3)cc3ncccc13)C2 (centres unmarked) [Example 2-6],did not exhibit a statistically significant decrease
18,"Cc1cc(Nc2cc3ncccc3c(N[C@@H]3C[C@H]4CC[C@@H](C3)N4C(=O)C(F)F)n2)n[nH]1 [Example 5, 2,2-difluoro-1-((1R,3s,5S)-3-((7-((5-methyl-1H-pyrazol-3-yl)amino)-1,6-naphthyridin-5-yl)amino)-8-azabicyclo[3.2.1]octan-8-yl)ethan-1-one]",statistically significant decrease
19,"Cc1cc(Nc2cc3ncccc3c(N[C@@H]3C[C@H]4CCC[C@@H](C3)N4S(=O)(=O)N3CC(C#N)C3)n2)n[nH]1 [Example 11, 1-(((1R,3s,5S)-3-((7-((5-methyl-1H-pyrazol-3-yl)amino)-1,6-naphthyridin-5-yl)amino)-9-azabicyclo[3.3.1]nonan-9-yl)sulfonyl)azetidine-3-carbonitrile]",did not exhibit a statistically significant decrease
20,Cc1cc(Nc2cc3ncccc3c(N[C@@H]3C[C@H]4CCC[C@@H](C3)N4CC(=O)N(C)C)n2)n[nH]1 [Example 1-38],statistically significant decrease
21,Cc1cc(Nc2cc3nc(CO)ccc3c(N[C@@H]3C[C@H]4CC[C@@H](C3)N4CCC#N)n2)n[nH]1 [Example 5-11],did not exhibit a statistically significant decrease
22,"Cc1cc(Nc2cc3ncccc3c(N[C@@H]3C[C@H]4CC[C@@H](C3)N4S(=O)(=O)N3CC(C#N)C3)n2)n[nH]1 [Example 13, 1-(((1R,3s,5S)-3-((7-((5-methyl-1H-pyrazol-3-yl)amino)-1,6-naphthyridin-5-yl)amino)-8-azabicyclo[3.2.1]octan-8-yl)sulfonyl)azetidine-3-carbonitrile]",did not exhibit a statistically significant decrease
